Experimental data from publication PMC8148468, “Shikimic acid protects skin cells from UV-induced senescence through activation of the NAD+-dependent deacetylase SIRT1” (Aging (Albany NY), 2021).
Read-outs that look alike come from different tables or passages of the source.

What was measured:
[1] = system: primary human dermal fibroblasts (HDFs)
Description: In our efforts to identify novel factors that could prevent skin cell senescence, we developed a screening process to identify new modulators of the protective role of sirtuins in UV-induced senescence. For this purpose, we established a culture of primary human dermal fibroblasts (HDFs). […] Our first step in the screening was to establish the optimal concentrations of these compounds in the case of HDFs. […] Once established, we took these parameters into account to decide the specific working range of concentrations for each compound.
Human dermal fibroblasts (HDFs) (Promocell, Germany) from 40-year old Caucasian women were used as the in vitro model for compound viability and efficacy screening. Cells were cultured in Dulbecco's modified eagle medium (DMEM) low glucose (Biowest, France) supplemented with 10% fetal bovine serum (FBS) (Capricorn Scientific, Germany) and 10 U/mL penicillin/streptomycin (Biowest, France) in a humidified incubator at 37° C and 5% CO2. For cell passage, cells at 80% confluence were trypsinized and plated at 60% confluence. Cells between passage 13 and 18 were used for the assays. For the SIRT1 in vitro assay, HEK293 cells (ATCC, USA), used to transfect and immunoprecipitate SIRT1 protein, were grown in DMEM high glucose (Thermo Fisher Scientific, USA), supplemented with 10% FBS in a humidified incubator at 37° C and 5% CO2. The following experiments were all performed in triplicate.
(§1) The protocol for senescence induction using UVB irradiation is described in the Supplementary Methods. SA-β-Gal staining, WST-1, sulforhodamine B (SRB) and trypan blue assays were performed as previously described. For the siRNA experiments, the protocol for senescence induction using UVB irradiation was the same as in the Supplementary Methods. Specific siRNA (Horizon discovery, UK) for SIRT1, SIRT2, SIRT6, BiP or scramble siRNA were incubated for 6 hours before each irradiation step.

[2] = system: H3K9ac (the target of SIRT1, SIRT2 and SIRT6); assay: Sirtuin activity assay in HDF: H3K9ac levels (Western blot); assay type: cell-based, human; details: HDF treated 24h; for SIRT1,2,6 H3K9ac: Figure 1B; on SIRT1,2,6 H3K9ac: key: ↑: increase; ↓: decrease; hyphens that indicate no effect (-)
Description: (§2) Figure 1 (A) Schematic representation of the compound testing for sirtuin activity evaluation in HDF. Cells were treated with or without the compounds for 24h and harvested for analysis. […] (C) Western Blot analysis and (D) quantification of H4K16ac and H3K9ac levels in cells treated with Resveratrol or Shikimic acid at the indicated concentrations. H4K16 and H3K9 levels were normalized to H4 and H3 levels respectively. Student T-test, *p<0.05, **p<0.01, ***p<0.001.
(§3) HDFs were plated in 100x20 mm2 cell culture plates and after 24h, fresh cell culture medium containing the compounds was added. After 24h, cells were detached with cell scrapers, harvested, and processed for qPCR or western blot.
(§4) Protein levels were analyzed as previously described. Cells were directly lysed in 1x Laemmli Buffer (Bio-Rad, USA), incubated at 95° C and centrifuged. Supernatant was subjected to SDS-polyacrylamide gel electrophoresis, and successive steps were performed as described. The list of antibodies used is included in Supplementary Table 2.

[3] = system: UVB-irradiated human dermal fibroblasts (HDFs); assay: UVB-induced senescence assay: SA-β-Gal staining; assay type: cell-based; details: for β-Gal: HDF, 2 cycles of UVB, compound day 1 to 7, Figure 2B; on β-Gal: key: ↑: increase; ↓: decrease; hyphens that indicate no effect (-)
Description: (§5) In the second approach, we established a method for inducing senescence in these cells with 2 cycles of UVB irradiation 72h apart (Figure 2A). The use of UVA to induce senescence was discarded due to its considerably longer time requirement, being unsuitable to screen 30 compounds within a reasonable period. Cells were treated with these compounds throughout the duration of the assay and cellular senescence was monitored with two markers: accumulation of SA-β-galactosidase (SA-β-Gal) activity, and the decrease in expression of HAS2 (hyaluronic acid synthase 2), a previously reported marker of skin senescence.
(§6) Figure 2 (A) Schematic representation of the protocol for senescence induction using UVB irradiation. Cells were treated -/+ the compounds from day 1 to 7 after seeding, irradiated with UVB on days 2 and 5 and harvested for analysis on day 7. […] (C) Phase-contrast (left column) and bright field (right column) microscope images of SA-β-Gal staining showing non-irradiated cells, UVB-irradiated cells non-treated and treated with Gallic acid or Shikimic acid at the indicated concentrations. (D) Percentage of SA-β-Gal positive cells and (E) Relative HAS2 mRNA levels in non-irradiated cells, UVB-irradiated cells and UVB-irradiated cells treated with Gallic acid or Shikimic acid at the indicated concentrations. Student T-test, *p<0.05, **p<0.01, ***p<0.001.
as §1
(§7) Senescence induction by UVB irradiation For the non-irradiation control conditions, HDF were […]
(§8) After 24h, culture medium was removed and well plates. After 24h, culture medium was removed replaced by fresh cell culture medium containing the and replaced with fresh cell culture medium containing compounds at different concentrations. After 24h, the compounds at different concentrations. […]
(§9) cell culture medium was removed, and cells were cells/plate in fresh cell culture medium containing the irradiated at 25 mJ/cm2 of UVB light (312 nm) in a Bio- compound in 6-well plates. After 3 days, cells were […]
(§10) amount of PBS. PBS was then removed and fresh cell fresh cell culture medium containing the compound in culture medium with the compound was added to each 6-well plates. After 2 days, cells were processed well. After 3 days, cells were irradiated again under the according to the qPCR, β-Gal staining, apoptosis, cell same conditions. After 2 days, cells were processed cycle or immunofluorescence protocols. according to the qPCR, β-Gal staining, apoptosis, cell cycle or immunofluorescence protocols.

[4] = system: HAS2 (hyaluronic acid synthase 2); assay: UVB-induced senescence assay: HAS2 gene expression (qPCR); assay type: cell-based, human; details: HDF, 2 cycles of UVB, compound day 1 to 7, Figure 2B; further: key: ↑: increase; ↓: decrease; hyphens that indicate no effect (-)
Description: as §5, §6
RNA was extracted from cell pellets using the Total RNA Purification Kit (Norgen, Canada), according to the manufacturer’s protocol. Extracted RNA was quantified using a NanoDrop® ND-1000 UV-Vis Spectrophotometer (Thermo Fisher Scientific, USA) and 300 ng of RNA were retrotranscribed to cDNA using the PrimeScriptTM RT reagent kit (Takara Bio Inc., Japan). cDNA was diluted 1/10 in ultrapure water and qPCR mix was prepared by adding cDNA (12 ng), SYBR green supermix (Bio Rad, USA), forward and reverse primers (0.2μM). The primers and their respective sequences are listed in Supplementary Table 1. qPCR protocol included one step at 95° C for 30 s, 40 cycles at 95° C for 10s, and 60° C for 1min. The results were analyzed with Bio-Rad CFX Manager software. BACT was used as a housekeeping gene to normalize gene expression.
as §7, §8, §9, §10

[5] = system: H4K16ac (the target of SIRT1 and SIRT2); assay: Sirtuin activity assay in HDF: H4K16ac levels (Western blot); assay type: cell-based, human; details: HDF treated 24h; for SIRT1,2 H4K16ac: Figure 1B; on SIRT1,2 H4K16ac: key: ↑: increase; ↓: decrease; hyphens that indicate no effect (-)
Description: as §2, §3, §4

[6] = HDFs, WST-1 cell viability test
[7] = HDFs, WST-1 cell viability test, maximum non-cytotoxic dose

Row | SMILES | LD50 ([1]; female, human) | Max. non-cyt. doses ([1]; female, human) | SIRT1,2,6 H3K9ac [2] | β-Gal [3] | HAS2 expression [4] | LD50 [1, 6] | Max. non-cyt. doses [1, 7] | SIRT1,2 H4K16ac [5] | Max. non-cyt. doses [1] | SA-β-Gal accumulation/staining ([3]; UVB-irradiated HDF) | effect on H4K16ac levels [5] | effect on H3K9ac levels [2] | prevention of UV-induced cellular senescence ([3]; UVB-irradiated HDF, SA-β-Gal and HAS2 markers) | effect of sirtuin inhibitor on the protective effect of SA on senescence (SA-β-Gal and HAS2 expression) ([3]; UVB-irradiated HDF, SA 10, 25, 50 mM plus EX-527 1 μM, AGK2 2 μM or OSS128167 200 μM)
1 | COC1=C(OC)C(=O)C(CCCCCCCCCCO)=C(C)C1=O [Idebenone, reference compound] | 0.021 mM | 0.01 mM | - | - | - |  |  |  |  |  |  |  |  | 
2 | COc1cc(-c2coc3cc4c(c(OC)c3c2=O)OCO4)cc(OC)c1OC [Irisflorentin] |  |  | - | - |  | 0.049 mM | 0.01 mM | - |  |  |  |  |  | 
3 | COc1cc(/C=C/C(=O)O)ccc1O [Ferulic acid] |  |  | - | - |  | 16.5 mM |  | - | 7.5 mM | did not change the level of SA-β-Gal staining |  |  |  | 
4 | C=C[C@@H]1C2=CCOC(=O)C2=CO[C@H]1O[C@@H]1O[C@H](CO)[C@@H](O)[C@H](O)[C@H]1O [Gentiopicrin] |  | 2.5 mM | - | - | - | 13.825 mM |  |  |  |  |  |  |  | 
5 | C=C[C@](C)(O)CC[C@@H]1[C@@]2(C)CCCC(C)(C)[C@@H]2CC[C@@]1(C)O [Sclareol] |  |  | - | - | - | 0.04 mM | 0.02 mM |  |  |  |  |  |  | 
6 | O=Cc1ccc(O)c(O)c1 [3,4-dihydroxybenzaldehyde] |  |  |  |  |  | 1.08 mM | 0.1 mM |  |  |  | induced a similar effect on both targets | induced a similar effect on both targets | did not prevent cellular senescence | 
7 | NCCS(=O)(=O)O [Taurine] | 396.58 mM | 150 mM | - | - |  |  |  | - |  | did not change the level of SA-β-Gal staining |  |  |  | 
8 | C[C@@H]1O[C@@H](O[C@@H]2[C@@H](O)[C@H](OCCc3ccc(O)c(O)c3)O[C@H](CO)[C@H]2OC(=O)/C=C/c2ccc(O)c(O)c2)[C@H](O)[C@H](O)[C@H]1O [Verbascoside] |  |  | - | - |  | 0.122 mM | 0.05 mM | - |  | did not change the level of SA-β-Gal staining |  |  |  | 
9 | NC(=O)NC1NC(=O)NC1=O (stereo not shown) [Allantoin, reference compound] | 100 mM | 50 mM |  | - | - |  |  | - |  |  |  |  |  | 
10 | N#C/C(=C\c1ccc(-c2cc(Cl)ccc2Cl)o1)C(=O)Nc1cccc2ncccc12 [AGK2, reference compound] |  |  |  |  |  |  |  |  |  |  |  |  |  | produced no clear effect
